The source of these data is US20240287080A1 (IDEAYA Biosciences Inc., priority 2021, published 2024).

SMILES strings stand for the structures.

As a reminder, the IC50 is the concentration at which inhibition is half-maximal. Low readings indicate greater potency, high ones weaker potency.

The target of this assay is T1, Pol theta (1-899) (Homo sapiens, UniProt O75417).
T1 construct: Pol theta (1-899) (5 nM) in assay buffer
T1 sequence (O75417 1-899): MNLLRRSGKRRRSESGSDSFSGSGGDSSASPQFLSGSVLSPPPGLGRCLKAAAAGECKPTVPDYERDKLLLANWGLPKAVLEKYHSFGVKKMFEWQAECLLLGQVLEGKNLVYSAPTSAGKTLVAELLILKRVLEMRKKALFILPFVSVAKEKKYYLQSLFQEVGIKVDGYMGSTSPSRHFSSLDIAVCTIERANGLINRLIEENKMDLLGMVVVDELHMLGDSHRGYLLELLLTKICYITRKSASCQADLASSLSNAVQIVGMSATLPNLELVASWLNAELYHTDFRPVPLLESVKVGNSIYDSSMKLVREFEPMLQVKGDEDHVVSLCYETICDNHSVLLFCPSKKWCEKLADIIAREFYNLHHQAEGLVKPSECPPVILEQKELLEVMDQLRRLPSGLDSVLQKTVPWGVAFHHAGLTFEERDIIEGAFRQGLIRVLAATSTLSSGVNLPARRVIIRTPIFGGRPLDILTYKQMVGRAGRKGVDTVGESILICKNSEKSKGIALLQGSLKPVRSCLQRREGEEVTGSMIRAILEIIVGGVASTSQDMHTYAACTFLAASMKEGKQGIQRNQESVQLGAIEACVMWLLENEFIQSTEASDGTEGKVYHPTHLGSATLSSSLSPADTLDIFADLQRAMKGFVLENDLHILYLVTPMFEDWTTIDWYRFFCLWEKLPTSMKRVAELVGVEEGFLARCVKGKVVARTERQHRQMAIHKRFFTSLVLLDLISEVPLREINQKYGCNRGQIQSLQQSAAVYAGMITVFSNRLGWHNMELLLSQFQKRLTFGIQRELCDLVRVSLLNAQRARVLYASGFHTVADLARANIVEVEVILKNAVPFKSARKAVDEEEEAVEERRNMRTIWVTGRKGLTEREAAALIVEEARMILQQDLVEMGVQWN
Nature of the assay: Pol theta ATPase activity, NADH oxidation-coupled enzymatic assay (ATPase NADH coupling: Standard Screening: hPolQ). Conditions: Pol theta (1-899) 5 nM, NADH oxidation-coupled ATPase assay; compounds of Table 3. Type of assay: biochemical. Put shortly:
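NADH-coupled ATPase readout: 5 nM Pol theta (1-899) preincubated 15 min with 10-point compound series in Tris pH 7.80, KCl, MgCl2, DTT, BSA, Tween, glycerol, then 100 μM ATP, 300 nM 50-mer poly-dT ssDNA, NADH, PEP, LDH and PK added (stock levels). A340 followed 60 min; slopes fit four-parameter for IC50.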
As for `COc1cnc(C)cc1-c1cc(C)ncc1C(=O)Nc1nnc(OC(CC(N)=O)C(F)(F)F)s1` (stereo not drawn) [Example 324, N-(5-((4-amino-1,1,1-trifluoro-4-oxobutan-2-yl)oxy)-1,3,4-thiadiazol-2-yl)-5′-methoxy-2′,6-dimethyl-[4,4′-bipyridine]-3-carboxamide], the IC50 is at most 200 nM.

The compound `COc1cnc(C)cc1-c1cc(C)ncc1C(=O)Nc1nnc(O)s1` [Example 325, N-(5-hydroxy-1,3,4-thiadiazol-2-yl)-5′-methoxy-2′,6-dimethyl-[4,4′-bipyridine]-3-carboxamide] yielded an IC50 of 1000 to 10000 nM.

In turn, `COc1nnc(NC(=O)c2cnc(C)cc2-c2cccc(C(=O)O)c2)s1` [Example 326, 3-(5-((5-methoxy-1,3,4-thiadiazol-2-yl)carbamoyl)-2-methylpyridin-4-yl)benzoic acid] returned an IC50 of 1000 to 10000 nM.

On to `COc1nnc(NC(=O)c2cnc(C)cc2-c2cc(C#N)cc(OC(F)(F)F)c2)s1` [Example 327, 4-[3-cyano-5-(trifluoromethoxy)phenyl]-N-(5-methoxy-1,3,4-thiadiazol-2-yl)-6-methylpyridine-3-carboxamide], for which the IC50 fell in the range of 1000 to 10000 nM.

Compound `COc1nnc(NC(=O)c2cnc(C)cc2-c2ccccc2)s1` [Example 329, N-(5-methoxy-1,3,4-thiadiazol-2-yl)-6-methyl-4-phenylpyridine-3-carboxamide] returned a half-inhibitory concentration (IC50) of 1000 to 10000 nM.

In turn, `COc1nnc(NC(=O)c2cnc(C)cc2-c2ccc(F)c(OC)c2)s1` [Example 330, 4-(4-fluoro-3-methoxyphenyl)-N-(5-methoxy-1,3,4-thiadiazol-2-yl)-6-methylpyridine-3-carboxamide] registered an IC50 of 1000 to 10000 nM.

In turn, `COc1nnc(NC(=O)c2cnc(C)cc2-c2cccnc2)s1` [Example 331, N-(5-methoxy-1,3,4-thiadiazol-2-yl)-6′-methyl-[3,4′-bipyridine]-3′-carboxamide] had an IC50 of 1000 to 10000 nM.

Turning to `COc1nnc(NC(=O)c2cnc(C)cc2-c2ccc3c(c2)C(=O)NC3)s1` [Example 332, N-(5-methoxy-1,3,4-thiadiazol-2-yl)-6-methyl-4-(3-oxo-2,3-dihydro-1H-isoindol-5-yl)pyridine-3-carboxamide], the IC50 lay within 1000 to 10000 nM.

In the case of `COc1nnc(NC(=O)c2cnc(C)cc2-c2cc(C(F)(F)F)cc(C(F)(F)F)c2)s1` [Example 333, 4-[3,5-bis(trifluoromethyl)phenyl]-N-(5-methoxy-1,3,4-thiadiazol-2-yl)-6-methylpyridine-3-carboxamide], the IC50 lay within 1000 to 10000 nM.

For the compound `COc1nnc(NC(=O)c2cnc(C)cc2-c2cncc(C#N)c2)s1` [Example 334, 5-cyano-N-(5-methoxy-1,3,4-thiadiazol-2-yl)-6′-methyl-[3,4′-bipyridine]-3′-carboxamide], the IC50 was in the range of 1000 to 10000 nM.

Consider `COc1nnc(NC(=O)c2cnc(C)cc2-c2cccc3[nH]ncc23)s1` [Example 335, 4-(1H-indazol-4-yl)-N-(5-methoxy-1,3,4-thiadiazol-2-yl)-6-methylnicotinamide], for which the IC50 was in the range of 500 to 1000 nM.

For `COc1nnc(NC(=O)c2cnc(C)cc2-c2cccc(C(=O)N(C)C)c2)s1` [Example 336, 4-[3-(dimethylcarbamoyl)phenyl]-N-(5-methoxy-1,3,4-thiadiazol-2-yl)-6-methylpyridine-3-carboxamide], the IC50 lay within 1000 to 10000 nM.

`COc1nnc(NC(=O)c2cnc(C)cc2-c2cc(F)cc(F)c2)s1` [Example 337, 4-(3,5-difluorophenyl)-N-(5-methoxy-1,3,4-thiadiazol-2-yl)-6-methylpyridine-3-carboxamide] had an IC50 of 500 to 1000 nM.

Take `COc1nnc(NC(=O)c2cnc(C)cc2-c2ccc3cn[nH]c3c2)s1` [Example 338, 4-(1H-indazol-6-yl)-N-(5-methoxy-1,3,4-thiadiazol-2-yl)-6-methylnicotinamide]: the IC50 was 1000 to 10000 nM.

Compound `CNC(=O)c1cncc(-c2cc(C)ncc2C(=O)Nc2nnc(OC)s2)c1` [Example 339, N3′-(5-methoxy-1,3,4-thiadiazol-2-yl)-N5,6′-dimethyl-[3,4′-bipyridine]-3′,5-dicarboxamide] returned an IC50 of 1000 to 10000 nM.

`COc1nnc(NC(=O)c2cnc(C)cc2-c2cncc(C(N)=O)c2)s1` [Example 340, N3′-(5-methoxy-1,3,4-thiadiazol-2-yl)-6′-methyl-[3,4′-bipyridine]-3′,5-dicarboxamide] registered an IC50 of 1000 to 10000 nM.

Regarding `COc1nnc(NC(=O)c2cnc(C)cc2-c2ccc3nccnc3c2)s1` [Example 341, N-(5-methoxy-1,3,4-thiadiazol-2-yl)-6-methyl-4-(quinoxalin-6-yl)pyridine-3-carboxamide], the IC50 was in the range of 500 to 1000 nM.

In the case of `COc1nnc(NC(=O)c2cnc(C)cc2-c2cnc(C(F)(F)F)c(F)c2)s1` [Example 342, 5-fluoro-N-(5-methoxy-1,3,4-thiadiazol-2-yl)-6′-methyl-6-(trifluoromethyl)-[3,4′-bipyridine]-3′-carboxamide], the IC50 was 1000 to 10000 nM.

`CNC(=O)c1cccc(-c2cc(C)ncc2C(=O)Nc2nnc(OC)s2)c1` [Example 343, N-(5-methoxy-1,3,4-thiadiazol-2-yl)-6-methyl-4-[3-(methylcarbamoyl)phenyl]pyridine-3-carboxamide] returned an IC50 of 1000 to 10000 nM.

The compound `COc1nnc(NC(=O)c2cnc(C)cc2-c2cccc(C(=O)NC3CC3)c2)s1` [Example 344, 4-[3(cyclopropylcarbamoyl)phenyl]-N-(5-methoxy-1,3,4-thiadiazol-2-yl)-6-methylpyridine-3carboxamide] came in with an IC50 of 1000 to 10000 nM.

`COc1nnc(NC(=O)c2cnc(C)cc2-c2ccc(OC)c(C#N)c2)s1` [Example 345, 4-(3-cyano-4-methoxyphenyl)-N-(5-methoxy-1,3,4-thiadiazol-2-yl)-6-methylpyridine-3-carboxamide] displayed an IC50 of 1000 to 10000 nM.

`COc1nnc(NC(=O)c2cnc(C)cc2-c2ccc3c(c2)NC(=O)CO3)s1` [Example 346, N-(5-methoxy-1,3,4-thiadiazol-2-yl)-6-methyl-4-(3-oxo-3,4-dihydro-2H-1,4-benzoxazin-6-yl)pyridine-3-carboxamide] showed an IC50 of 1000 to 10000 nM.

On to `COc1nnc(NC(=O)c2cnc(C)cc2-c2ccc3c(c2)CC(=O)N3)s1` [Example 347, N-(5-methoxy-1,3,4-thiadiazol-2-yl)-6-methyl-4-(2-oxo-2,3-dihydro-1H-indol-5-yl)pyridine-3-carboxamide], for which the IC50 was in the range of 1000 to 10000 nM.

In the case of `COc1nnc(NC(=O)c2cnc(C)cc2-c2ccc3c(c2)OC(F)(F)O3)s1` [Example 349, 4-(2,2-difluoro-2H-1,3-benzodioxol-5-yl)-N-(5-methoxy-1,3,4-thiadiazol-2-yl)-6-methylpyridine-3-carboxamide], the IC50 is 1000 to 10000 nM.

As to `COc1nnc(NC(=O)c2cnc(C)cc2-c2cc(C3CC3)nn2C2CCCCO2)s1` (stereo not drawn) [Example 350, 4-(3-cyclopropyl-1-(tetrahydro-2H-pyran-2-yl)-1H-pyrazol-5-yl)-N-(5-methoxy-1,3,4-thiadiazol-2-yl)-6-methylnicotinamide], the IC50 is 1000 to 10000 nM.

`COc1nnc(NC(=O)c2cnc(C)cc2-c2ccn(C)c(=O)c2)s1` [Example 351, N-(5-methoxy-1,3,4-thiadiazol-2-yl)-1′,6-dimethyl-2′-oxo-1′,2′-dihydro-[4,4′-bipyridine]-3-carboxamide] gave an IC50 of 1000 to 10000 nM.

In turn, `COc1nnc(NC(=O)c2cnc(C)cc2-c2ccc3[nH]ccc3c2)s1` [Example 352, 4-(1H-indol-5-yl)-N-(5-methoxy-1,3,4-thiadiazol-2-yl)-6-methylpyridine-3-carboxamide] showed an IC50 of 1000 to 10000 nM.

Take `COc1nnc(NC(=O)c2cnc(C)cc2-c2ccc(C(N)=O)cc2)s1` [Example 353, 4-(4-carbamoylphenyl)-N-(5-methoxy-1,3,4-thiadiazol-2-yl)-6-methylpyridine-3-carboxamide]: the IC50 is 1000 to 10000 nM.

`COc1nnc(NC(=O)c2cnc(C)cc2-c2ccc(F)c(F)c2)s1` [Example 354, 4-(3,4-difluorophenyl)-N-(5-methoxy-1,3,4-thiadiazol-2-yl)-6-methylpyridine-3-carboxamide] came in with a half-inhibitory concentration (IC50) of 1000 to 10000 nM.

For `COc1nnc(NC(=O)c2cnc(C)cc2-c2ccc(C(F)(F)F)cc2)s1` [Example 355, N-(5-methoxy-1,3,4-thiadiazol-2-yl)-methyl4-(4-(trifluoromethyl)phenyl) nicotinamide], the IC50 lay in the range of 1000 to 10000 nM.

On to `COc1nnc(NC(=O)c2cnc(C)cc2-c2ccc(C(C)(C)C)cc2)s1` [Example 356, 4-(4-(tert-butyl)phenyl)-N-(5-methoxy-1,3,4-thiadiazol-2-yl)-6-methylnicotinamide], for which the IC50 was 1000 to 10000 nM.

In turn, `COc1nnc(NC(=O)c2cnc(C)cc2-c2cnc3[nH]ncc3c2)s1` [Example 357, N-(5-methoxy-1,3,4-thiadiazol-2-yl)-6-methyl-4-(1H-pyrazolo[3,4-b]pyridin-5-yl)nicotinamide] returned a half-maximal inhibitory concentration (IC50) of 1000 to 10000 nM.

For the compound `COc1nnc(NC(=O)c2cnc(C)cc2-c2cc(C)cc(C)c2)s1` [Example 358, 4-(3,5-dimethylphenyl)-N-(5-methoxy-1,3,4-thiadiazol-2-yl)-6-methylpyridine-3-carboxamide], the IC50 lay in the range of 500 to 1000 nM.

With `COc1nnc(NC(=O)c2cnc(C)cc2-c2cccc(C(F)(F)F)c2)s1` [Example 359, N-(5-methoxy-1,3,4-thiadiazol-2-yl)-6-methyl-4-[3-(trifluoromethyl)phenyl]pyridine-3-carboxamide], the IC50 is at most 200 nM.

In turn, `COc1nnc(NC(=O)c2cnc(C)cc2-c2cccs2)s1` [Example 360, N-(5-methoxy-1,3,4-thiadiazol-2-yl)-6-methyl-4-(thiophen-2-yl)pyridine-3-carboxamide] displayed an IC50 of 1000 to 10000 nM.

In turn, `COc1nnc(NC(=O)c2cnc(C)cc2-c2cccc(C)c2)s1` [Example 361, N-(5-methoxy-1,3,4-thiadiazol-2-yl)-6-methyl-4-(3-methylphenyl) pyridine-3-carboxamide] yielded an IC50 of 500 to 1000 nM.
